Measured values taken from paper PMC9444293 (Investigative Radiology, 2022).
Where two headings read alike, the source gives them in different places. Marks after values point to notes of the source that are not given here.

Assays:
[1] = Number of inner sphere water molecules; type: physicochemical; conditions: per Gd
[2] = market formulation; ref Port et al, 24; cited from earlier work
[3] = IV 0.1 mmol Gd/kg bw
[4] = rat
[5] = ref Szomolanyi et al, 23; cited from earlier work
[6] = formulation; ref Port et al, 24; cited from earlier work
[7] = type: physicochemical; conditions: after 3 days
Partition coefficient = type: physicochemical; conditions: pH 7.4, room temperature
[8] = type: physicochemical; conditions: 37°C, pH 7.4, 21 days, LLOQ 0.1 nmol Gd/g
[9] = cited from earlier work
[10] = ref Port et al, 24; cited from earlier work
[11] = pH 7.4; cited from earlier work
[12] = 7 days after single IV 0.1 mmol Gd/kg bw
[13] = 7 days after single IV 0.1 mmol Gd/kg bw, LLOQ 0.05

Compound: O=C([O-])CN1CCN(CC(=O)[O-])CCN([C@H](CO)[C@H](O)CO)CCN(CC(=O)[O-])CC1.[Gd+3] (racemic) [Gadobutrol, gadobutrol, reference compound]
- No. Inner Sphere Water Molecules (q) [1]: q = 1
- Osmolality at 37°C [2]: 1603∥ mosmol/kg H2O
- AUC^∞ ([3]; rat plasma): 234 ± 10 (4.3%) μmol·h/L
- γ-AUC ([3]; rat plasma): 1.1 % of AUC^∞
- γ-AUC ([3]; rat plasma, listed as gadobutrol): 1 % of AUC^∞
- Clplasma ([3]; rat): 0.43 ± 0.02 (4.3%) L/h/kg
- Vss ([3]; rat): 0.29 ± 0.03 (9.1%) L/kg
- β t1/2 ([3]; rat, 3-compartment model): 22 ± 0.69 (3.2%) min
- γ t1/2 ([3]; rat, 3-compartment model): 13 ± 2.0 (16%) h
- α t1/2 ([3]; rat, 3-compartment model, mean estimate ± SD (CV%)): 2.5 ± 1.1 (42%) min
- Gadolinium concentration, Bone marrow [4, 12]: 0.628 ± 0.420 nmol Gd/g wet tissue
- Gadolinium concentration, Carcass [4, 12]: 0.590 ± 0.162 nmol Gd/g wet tissue
- Gadolinium concentration, Heart [4, 12]: 0.127 ± 0.004 nmol Gd/g wet tissue
- Gadolinium concentration, Intestine [4, 12]: 0.453 ± 0.233 nmol Gd/g wet tissue
- Gadolinium concentration, Kidney [4, 12]: 19.6 ± 1.47 nmol Gd/g wet tissue
- Gadolinium concentration, Liver [4, 12]: 0.312 ± 0.054 nmol Gd/g wet tissue
- Gadolinium concentration, Lung [4, 12]: 0.218 ± 0.046 nmol Gd/g wet tissue
- Gadolinium concentration, Mesenterial lymph nodes [4, 12]: 0.631 ± 0.113 nmol Gd/g wet tissue
- Gadolinium concentration, Muscle [4, 12]: 0.074 ± 0.013 nmol Gd/g wet tissue
- Gadolinium concentration, Skin [4, 12]: 0.202 ± 0.057 nmol Gd/g wet tissue
- Gadolinium concentration, Spleen [4, 12]: 0.382 ± 0.101 nmol Gd/g wet tissue
- Gadolinium concentration, Stomach [4, 12]: 0.155 ± 0.010 nmol Gd/g wet tissue
- Gadolinium concentration, Blood [4, 13]: <0.05* nmol Gd/g wet tissue
- Gadolinium concentration, Brain [4, 13]: <0.05* nmol Gd/g wet tissue
- Gadolinium concentration, Bone ([4]; femur, 7 days after single IV 0.1 mmol Gd/kg bw): 1.013 ± 0.767 nmol Gd/g wet tissue
- Amount of Gd recovered in Feces, 0–5 d ([4]; in vivo, iv): 1.44% ± 1.2%
- Amount of Gd recovered in Urine, 0–1 d ([4]; in vivo, iv): 99.2% ± 1.5%
- Amount of Gd recovered in Urine, 0–5 d ([4]; in vivo, iv): 100% ± 1.6%
- Total recovery of Gd, 0–7 d ([4]; in vivo, iv): 102% ± 4.1%
- r1-Relaxivity in Human Plasma at 37°C, 3.0 T [5]: 5.0 ± 0.6§ mM^−1 s^−1
- Viscosity at 37°C [6]: 5.0∥ mPa·s
- Decrease of the T1 relaxation rates (R1) in zinc transmetallation assay [7]: no change
- Log P (1-Butanol/Buffer) (Partition coefficient): −2.22
- Gd release after 21 days in human serum (below LLOQ) [8]: < 0.1 nmol Gd/g
- r1-Relaxivity in Human Plasma at 37°C, 1.5 T ([9]; ref Szomolanyi et al, 23, listed as gadobutrol): 4.8 mM⁻¹ s⁻¹
- r1-Relaxivity in Human Plasma at 37°C, 1.5 T ([9]; ref Szomolanyi et al, 23): 4.8 ± 0.1§ mM^−1 s^−1

Compound: CNC[C@H](O)[C@@H](O)[C@H](O)[C@H](O)CO.CNC[C@H](O)[C@@H](O)[C@H](O)[C@H](O)CO.O=C([O-])CN(CCN(CC(=O)[O-])CC(=O)O)CCN(CC(=O)[O-])CC(=O)O.[Gd+3] [Gadopentetate dimeglumine, gadopentetate dimeglumine]
- Decrease of the T1 relaxation rates (R1) in zinc transmetallation assay [7]: 66%

Compound: CNC[C@H](O)[C@@H](O)[C@H](O)[C@H](O)CO.O=C([O-])CN1CCN(CC(=O)[O-])CCN(CC(=O)O)CCN(CC(=O)[O-])CC1.[Gd+3] [Gadoterate meglumine, gadoterate meglumine]
- No. Inner Sphere Water Molecules (q) [1]: q = 1
- Osmolality at 37°C [2]: 1350∥ mosmol/kg H2O
- Log P (1-Butanol/Buffer) [10]: −2.87∥
- r1-Relaxivity in Human Plasma at 37°C, 3.0 T [5]: 3.0 ± 0.1§ mM^−1 s^−1
- Viscosity at 37°C [6]: 2.0∥ mPa·s
- Decrease of the T1 relaxation rates (R1) in zinc transmetallation assay [7]: no change
- r1-Relaxivity in Human Plasma at 37°C, 1.5 T ([9]; ref Szomolanyi et al, 23, listed as gadoterate meglumine): 3.3 mM⁻¹ s⁻¹
- r1-Relaxivity in Human Plasma at 37°C, 1.5 T ([9]; ref Szomolanyi et al, 23): 3.3 ± 0.1§ mM^−1 s^−1

Compound: CC(O)CN1CCN(CC(=O)[O-])CCN(CC(=O)[O-])CCN(CC(=O)[O-])CC1.[Gd+3] (centres unmarked) [Gadoteridol]
- No. Inner Sphere Water Molecules (q) [1]: q = 1
- Osmolality at 37°C [2]: 630∥ mosmol/kg H2O
- Log P (1-Butanol/Buffer) [10]: −1.98∥
- r1-Relaxivity in Human Plasma at 37°C, 3.0 T [5]: 3.3 ± 0.1§ mM^−1 s^−1
- Viscosity at 37°C [6]: 1.3∥ mPa·s
- r1-Relaxivity in Human Plasma at 37°C, 1.5 T ([9]; ref Szomolanyi et al, 23): 3.8 ± 0.1§ mM^−1 s^−1

Compound: Gadopiclenol
- log Kcond [11]: 15.5

Compound: Gd-PCTA
- log Kcond [11]: 15.5
